Experimental data reported in ChEMBL document CHEMBL3885861, “Open TG-GATES”.
*1 amine or outer side, *2 acyl side, *3 side chain or, on linkers, in order; H or OH if unused. Where a SMILES comes first, the peptide text is derived from it. Bridges are numbered along the chain shown (N, C = ends). [ ]: non-standard residue; d: D form. Trp(2-yl) = O=C([C@H](Cc1c([*:3])[nH]c2ccccc12)N[*:1])[*:2]; Leu(4R-OH,5-OH) = C[C@](O)(CO)C[C@H](N)C(=O)O; cisHyp = O=C(O)[C@@H]1C[C@H](O)CN1

Organism: Rattus norvegicus
Test: Open TG-GATES - Regimen: Daily Repeat
Type: toxicity, organism-based, Sprague-Dawley
Design: regimen Daily Repeat, gender Male, age 6 weeks
Conditions: in vivo, ip, 0 mg/kg, route intraperitoneal injection, dose level Control; for APTT / Bas / Eos / Fbg / Hb / Ht / Lym / MCH / MCHC / MCV / Mono / Neu / PT / Plat / RBC / Ret / WBC: tissue Blood; for KIDNEY_L / KIDNEY_R / KIDNEY_TOTAL: tissue Kidney; for LIVER: tissue Liver; for A/G / ALP / ALT / AST / BUN / CRE / Ca / Cl / DBIL / GLC / IP / K / LDH / Na / PL / RALB / TBIL / TC / TG / TP / gamma-GTP: tissue Plasma

## C[C@@H]1NC(=O)[C@H](C[C@@](C)(O)CO)NC(=O)[C@@H]2Cc3c([nH]c4ccccc34)SC[C@H](NC(=O)[C@@H]([C@H](C)O)NC1=O)C(=O)N1C[C@@H](O)C[C@H]1C(=O)N[C@@H](C)C(=O)N2 [PHALLOIDIN] (cyclo(A[dT]C[cisHyp]A[Trp(2-yl)][Leu(4R-OH,5-OH)]); thioether 3-6)
72 h, time 3 day
  TERMINAL_BW: 224.8 g
  APTT: 23.1 s
  Bas: 0%
  Eos: 1%
  Fbg: 328 mg/dL
  Hb: 13 g/dL
  Ht: 40.4%
  Lym: 83%
  MCH: 20.5 pg
  MCHC: 32.2%
  MCV: 63.5 fL
  Mono: 2.8%
  Neu: 12.6%
  PT: 16.3 s
  Plat: 118.5 x10_4/uL
  RBC: 636.6 x10_4/ul
  Ret: 6.8%
  WBC: 113.9 x10_2/uL
  KIDNEY_L: 1 g
  KIDNEY_R: 1 g
  KIDNEY_TOTAL: 1.9 g
  LIVER: 10.4 g
  A/G: 1.3
  ALP: 1525.8 IU/L
  ALT: 42 IU/L
  AST: 66.8 IU/L
  BUN: 17.4 mg/dL
  CRE: 0.2 mg/dL
  Ca: 10.8 mg/dL
  Cl: 105.4 meq/L
  DBIL: 0 mg/dL
  GLC: 201.4 mg/dL
  IP: 8.4 mg/dL
  K: 4.7 meq/L
  LDH: 177.6 IU/L
  Na: 140.8 meq/L
  PL: 139.6 mg/dL
  RALB: 3.1 g/dL
  TBIL: 0 mg/dL
  TC: 78 mg/dL
  TG: 116.4 mg/dL
  TP: 5.5 g/dL
  gamma-GTP: 1.6 IU/L
[…], time 7 day
  TERMINAL_BW: 261.3 g
  APTT: 23.5 s
  Bas: 0%
  Eos: 1%
  Fbg: 322.2 mg/dL
  Hb: 12.9 g/dL
  Ht: 39.5%
  Lym: 80%
  MCH: 20.4 pg
  MCHC: 32.6%
  MCV: 62.5 fL
  Mono: 1.8%
  Neu: 16.2%
  PT: 15.6 s
  Plat: 135.8 x10_4/uL
  RBC: 632.2 x10_4/ul
  Ret: 6.8%
  WBC: 114.9 x10_2/uL
  KIDNEY_L: 1.1 g
  KIDNEY_R: 1.2 g
  KIDNEY_TOTAL: 2.3 g
  LIVER: 11.8 g
  A/G: 1.2
  ALP: 1235.4 IU/L
  ALT: 36.6 IU/L
  AST: 63.4 IU/L
  BUN: 18 mg/dL
  CRE: 0.2 mg/dL
  Ca: 10.4 mg/dL
  Cl: 105.8 meq/L
  DBIL: 0 mg/dL
  GLC: 189.8 mg/dL
  IP: 8.2 mg/dL
  K: 4.4 meq/L
  LDH: 160.4 IU/L
  Na: 142.6 meq/L
  PL: 130.8 mg/dL
  RALB: 2.9 g/dL
  TBIL: 0.008 mg/dL
  TC: 75 mg/dL
  TG: 88.6 mg/dL
  TP: 5.4 g/dL
  gamma-GTP: 2.8 IU/L
